These results are taken from patent publication US20100010092A1, “USE OF MODAFINIL TO TREAT RESTLESS LEG SYNDROME” (Arless Ltd., priority 2006, published 2010).

Structures can show the parent of a compound that is named as a salt.

Data set [1] concerns PLMD and RLS and Primary snoring. The data set can be described thus: Case reports: patient with sleep study diagnosed PLMD, RLS and Primary snoring taking the drug orally. The format is in vivo, human. To be noted: for RLS and PLMD symptoms on chronic use: symptoms returned immediately after stopping. As to the method: An otherwise healthy non-obese person with sleep study diagnosed PLMD and RLS and Primary snoring without apnea, 61 kg, took Requip, ropinirole HCL from 0.25 to 0.75 mg orally per day for PLMS and RLS for a period of over 8-12 months. PLM were severe enough to occasionally awaken them from sleep. […] Multiple attempts at gaining relief were made over a period of 8-12 months. These attempts failed. […]

For data set [2], the system named is restless leg syndrome and PLMS, and Primary snoring. The data set can be described thus: Overnight polysomnographic sleep study, evening dosage. The data set is classed as in vivo, human. To be noted: oral 50 mg in the evening, versus baseline without drug. The text has this:
A non-obese subject with no outstanding medical history other than restless leg syndrome and PLMS of 6 years duration, and Primary snoring, 60 kg, was entered into an overnight sleep study in a specialist hospital sleep disorder center. […] Snoring as represented by the Snore Index was reduced 70%.

For data set [3] the following is noted: doses up to 400 mg per day, given as a single dose; cited from earlier work.
For data set [4] the following is noted: cited from earlier work; for share of trough concentration (Cminss) of circulating modafinil: after once daily dosing of racemic modafinil.
The subject of data set [5] is RLS. To be noted: moderate to severe RLS; cited from earlier work.
The mark [6] stands for this setting: 50 mg by mouth 1-3 hours prior to bedtime.
The mark [7] stands for this setting: 50 mg by mouth between 8 am and noon.
[8] abbreviates: 50 mg or 25 mg by mouth in the morning.

`NC(=O)C[S+]([O-])C(c1ccccc1)c1ccccc1` (racemic) [modafinil, 2-[(diphenylmethyl)sulfiny]acetamide]: the symptoms entry in data set [1] (25 mg as needed, evening dosage) is reported as “either completely relieved or greatly diminished”. In data set [1] (25 mg by mouth in the morning), the “removal of symptoms at lower dosage” value was “failed to entirely remove symptoms”. Moreover, in data set [1] (setting [6]), the “limb movements and the urge to move the limb and associated sensations while awake” value is recorded as “greatly reduced”; the “time until limb movements and urge were greatly reduced” value is “approximately 90 minutes”. Also, in data set [1] (setting [7]), the “leg jerks during sleep observed by partner” value is “no leg jerks during sleep were observed”; the “limb movements and snoring while asleep noticed by partner” value is “absence of limb movements and snoring”; the “restfulness noted by patient” value was “increased restfulness”; the “urge to move legs in the evenings” value is listed as “No urge to move legs in the evenings occurred”. For the same molecule, in data set [1] (setting [8]), the “limb movements and the urge to move the limb and associated sensations while awake” value was “greatly reduced”; the “snoring noted by sleep partner” value is reported as “marked decrease in snoring”. Besides, in data set [1] (100 mg by mouth in the morning), the “leg jerks during sleep observed by partner” value was “no leg jerks during sleep were observed”; the “limb movements and snoring while asleep noticed by partner” value is “absence of limb movements and snoring”; the “restfulness noted by patient” value is listed as “increased restfulness”; the “urge to move legs in the evenings” value was “No urge to move legs in the evenings occurred”. In data set [1] (evening dosage, every day for periods of 5 to 7 days), the “RLS and PLMD symptoms on chronic use” value is “periods free from RLS and PLMD symptoms”. Also, the “RLS and PLMD symptoms on chronic use” value in data set [1] (morning dosage 50 or 25 mg, every day for periods of up to 11 days) was “periods free from RLS and PLMD symptoms”. In addition, in data set [2], the PLMs during sleep entry is on record as “not detected” and the “reduction of snoring as represented by the Snore Index” value came out at 70%. Moreover, the tolerability entry in data set [3] is recorded as “well tolerated”.
For the molecule `NC(=O)C[S+]([O-])C(c1ccccc1)c1ccccc1` (single isomer, unassigned) [d-isomer], the “share of trough concentration (Cminss) of circulating modafinil” value in data set [4] is on record as 10%.
As for `NC(=O)C[S@@+]([O-])C(c1ccccc1)c1ccccc1` [I-isomer, r-2-((diphenylmethyl)sulfinyl)-acetamide], the “share of trough concentration (Cminss) of circulating modafinil” value in data set [4] is given as 90%. The “total exposure at steady state relative to that for the d-isomer” value in data set [4] (taken orally, steady state) is recorded as “approximately three”.
Turning to `CCCN(CCC)CCc1cccc2c1CC(=O)N2` [Requip, ropinirole HCL], the “PLMS according to the partner” value in data set [1] (ropinirole HCL 0.25 to 0.75 mg orally per day, over 8-12 months) is “PLMS continued”. The “relief of RLS/PLMS symptoms” value in data set [1] (ropinirole HCL 0.25 to 0.75 mg orally per day, over 8-12 months, person) is given as “did not relieve symptoms”. Besides, the “additional complications reported by patients” value in data set [5] was “constipation and daytime sleepiness”.
